23 molecules from ChEMBL document CHEMBL1153082, “Design and synthesis of N(6)-substituted-4'-thioadenosine-5'-uronamides as potent and selective human A(3) adenosine receptor agonists” (Bioorg Med Chem, 2009) can be followed below.

In assay [1] the target is T1, Adenosine receptor A2a (Homo sapiens, UniProt P29274). The assay is described as follows: Displacement of [3H]CGS21680 from human adenosine A2A receptor expressed in CHO cells at 1 uM. The format is cell-based. In general terms: Loss of bound radioactivity is the signal in a displacement assay; it reports binding, not function.
In assay [2] the target is T2, Adenosine receptor A1 (Homo sapiens, UniProt P30542).
T2 sequence (P30542 whole entry): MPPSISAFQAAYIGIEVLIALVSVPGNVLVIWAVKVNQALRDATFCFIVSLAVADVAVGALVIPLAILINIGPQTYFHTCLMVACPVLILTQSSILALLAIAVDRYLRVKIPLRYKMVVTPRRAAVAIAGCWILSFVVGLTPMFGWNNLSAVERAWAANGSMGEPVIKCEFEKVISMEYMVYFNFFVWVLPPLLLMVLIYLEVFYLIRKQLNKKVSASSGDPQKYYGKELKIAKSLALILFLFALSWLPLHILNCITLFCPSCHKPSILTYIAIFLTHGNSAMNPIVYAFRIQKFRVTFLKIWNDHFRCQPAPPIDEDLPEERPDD
The experiment in a line: biochemical.

The next assay has as its target T3, Adenosine receptor A3 (Homo sapiens, UniProt P0DMS8).
T3 sequence (P0DMS8 whole entry): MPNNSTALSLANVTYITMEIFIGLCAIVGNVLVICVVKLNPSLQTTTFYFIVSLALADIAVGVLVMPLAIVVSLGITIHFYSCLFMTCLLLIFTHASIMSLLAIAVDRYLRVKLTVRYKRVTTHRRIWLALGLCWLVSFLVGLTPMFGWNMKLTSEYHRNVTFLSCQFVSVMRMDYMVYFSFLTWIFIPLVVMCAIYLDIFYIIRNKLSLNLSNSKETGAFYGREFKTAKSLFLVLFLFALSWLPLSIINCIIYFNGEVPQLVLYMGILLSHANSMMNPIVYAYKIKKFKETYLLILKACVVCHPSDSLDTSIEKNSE
The assay is described as follows: biochemical.

The target in assay [3] is T4, Adenosine receptor A1 (Homo sapiens) (UniProt P30542).
T4 sequence (whole entry): T2 sequence (P30542 whole entry)
The experiment in a line: Displacement of [3H]R-PIA from human adenosine A1 receptor expressed in CHO cells at 1 uM. The class given is cell-based.

Assay [4] has as its target T1, Adenosine receptor A2a. The assay is described as follows: biochemical.
For assay [5], the target named is T2, Adenosine receptor A1.
For assay [6], the target named is T1, Adenosine receptor A2a.

T1 sequence (P29274 whole entry): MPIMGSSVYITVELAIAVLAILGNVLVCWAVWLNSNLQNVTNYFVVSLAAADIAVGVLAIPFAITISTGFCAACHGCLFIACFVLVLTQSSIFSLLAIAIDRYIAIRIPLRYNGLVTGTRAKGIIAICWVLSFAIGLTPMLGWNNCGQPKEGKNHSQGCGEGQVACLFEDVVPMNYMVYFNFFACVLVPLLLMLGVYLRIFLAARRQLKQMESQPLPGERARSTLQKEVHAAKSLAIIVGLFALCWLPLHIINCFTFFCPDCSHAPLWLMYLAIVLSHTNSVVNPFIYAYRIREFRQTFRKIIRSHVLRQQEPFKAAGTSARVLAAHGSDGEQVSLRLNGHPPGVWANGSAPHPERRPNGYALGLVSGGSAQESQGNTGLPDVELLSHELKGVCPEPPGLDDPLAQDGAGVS

For orientation: inhibition means the share of the control response that was lost under treatment. The low end stands for a response near the control, the high end for a response far below the control. In general, Ki refers to a dissociation constant, usually derived from enzyme kinetics or from competition with a known ligand. A lower Ki goes with a stronger hold on the target. In turn, `CNc1ncnc2c1ncn2[C@@H]1S[C@H](C(=O)NCC2CC2)[C@@H](O)[C@H]1O` gave an inhibition at Adenosine receptor A2a [1] of 45%. Also, the Ki is 33.1 nM at Adenosine receptor A1 [2] and 1.35 nM at Adenosine receptor A3.
As for `CNC(=O)[C@H]1S[C@@H](n2cnc3c(NC)ncnc32)[C@H](O)[C@@H]1O`, the inhibition on Adenosine receptor A2a [1] was found to be 20%. The Ki at Adenosine receptor A1 [2] came to 69.5 nM; at Adenosine receptor A3, 1.19 nM.
The molecule `O=C(NC(c1ccccc1)c1ccccc1)[C@H]1S[C@@H](n2cnc3c(NCc4cccc(I)c4)ncnc32)[C@H](O)[C@@H]1O` returned an inhibition in assay [3] of 17%. At Adenosine receptor A3, the Ki was 116 nM.
In the case of `O=C(NCCc1ccccc1)[C@H]1S[C@@H](n2cnc3c(NCc4cccc(I)c4)ncnc32)[C@H](O)[C@@H]1O`, the values for the inhibition (in assay [3]; at Adenosine receptor A2a [1]) were 20% and 38%, respectively. Besides, at Adenosine receptor A3, the affinity, expressed as Ki, was 433 nM.
Consider `CCNC(=O)[C@H]1S[C@@H](n2cnc3c(NC)ncnc32)[C@H](O)[C@@H]1O`, for which the inhibition on Adenosine receptor A2a [1] was determined as 38%. The Ki at Adenosine receptor A1 [2] was found to be 4.83 nM; on Adenosine receptor A3 it was 0.97 nM.
Consider `O=C(NCc1cccc2ccccc12)[C@H]1S[C@@H](n2cnc3c(NCc4cccc(I)c4)ncnc32)[C@H](O)[C@@H]1O`, for which the inhibition in assay [3] was 20%; at Adenosine receptor A2a [1], 11%. At Adenosine receptor A3, this molecule registered a Ki of 1200 nM.
Take `CCNC(=O)[C@H]1S[C@@H](n2cnc3c(NCc4cccc(I)c4)ncnc32)[C@H](O)[C@@H]1O`: the Ki on Adenosine receptor A1 [2] amounted to 5.4 nM; at Adenosine receptor A2a [4], 57.6 nM; at Adenosine receptor A3 it was 0.42 nM.
On to `O=C(NC1CCCCC1)[C@H]1S[C@@H](n2cnc3c(NCc4cccc(I)c4)ncnc32)[C@H](O)[C@@H]1O`, for which the inhibition in assay [3] is 28%; on Adenosine receptor A2a [1], 35%. On Adenosine receptor A3, this molecule registered a Ki of 35.4 nM.
In the case of `CNc1ncnc2c1ncn2[C@@H]1S[C@H](C(=O)NC2CC2)[C@@H](O)[C@H]1O`, the figures for the Ki on Adenosine receptor A1 [2], at Adenosine receptor A2a [4] and at Adenosine receptor A3 were 6.58 nM, 161 nM and 2.16 nM, respectively.
As for `COc1ccccc1CNC(=O)[C@H]1S[C@@H](n2cnc3c(NCc4cccc(I)c4)ncnc32)[C@H](O)[C@@H]1O`, the inhibition in assay [3] turned out to be 34%; on Adenosine receptor A2a [1], 23%. The molecule also had a Ki at Adenosine receptor A3 of 97 nM.
With `O=C(NCC1CC1)[C@H]1S[C@@H](n2cnc3c(NCc4cccc(I)c4)ncnc32)[C@H](O)[C@@H]1O`, the Ki was found to be 159 nM on Adenosine receptor A1 [2], 1600 nM at Adenosine receptor A2a [4] and 2.16 nM on Adenosine receptor A3.
`CNc1ncnc2c1ncn2[C@@H]1S[C@H](C(=O)NC2CCCC2)[C@@H](O)[C@H]1O` had an inhibition on Adenosine receptor A2a [1] of 27%. Moreover, the Ki is 48.6 nM on Adenosine receptor A1 [2] and 0.97 nM on Adenosine receptor A3.
Turning to `CNC(=O)[C@H]1S[C@@H](n2cnc3c(NCc4cccc(I)c4)ncnc32)[C@H](O)[C@@H]1O`, the inhibition constant Ki at Adenosine receptor A1 [5] was found to be 20.2 nM; on Adenosine receptor A2a [6] it was 475 nM.
On to `O=C(NCc1cccc(F)c1)[C@H]1S[C@@H](n2cnc3c(NCc4cccc(I)c4)ncnc32)[C@H](O)[C@@H]1O`, for which the values for the inhibition (in assay [3]; on Adenosine receptor A2a [1]) were 25% and 44%, respectively. For the same molecule, on Adenosine receptor A3, the Ki worked out at 61.1 nM.
`Cc1cccc(CNC(=O)[C@H]2S[C@@H](n3cnc4c(NCc5cccc(I)c5)ncnc43)[C@H](O)[C@@H]2O)c1` came in with an inhibition on Adenosine receptor A2a [1] of 37%. Further, the Ki at Adenosine receptor A1 [2] was 4070 nM; at Adenosine receptor A3, 94.9 nM.
On to `CNc1ncnc2c1ncn2[C@@H]1S[C@H](C(=O)NCc2cccc(I)c2)[C@@H](O)[C@H]1O`, for which the inhibition (in assay [3]; at Adenosine receptor A2a [1]) was 24% each time. Besides, affinity at Adenosine receptor A3 was put at a Ki of 15.6 nM.
As to `CNc1ncnc2c1ncn2[C@@H]1S[C@H](C(=O)NC2CCC2)[C@@H](O)[C@H]1O`, the figures for the Ki at Adenosine receptor A1 [2], on Adenosine receptor A2a [4] and at Adenosine receptor A3 were 6.27 nM, 108 nM and 1.04 nM, respectively.
As for `Cc1ccc(CNC(=O)[C@H]2S[C@@H](n3cnc4c(NCc5cccc(I)c5)ncnc43)[C@H](O)[C@@H]2O)cc1`, the inhibition was 15% in assay [3] and 28% on Adenosine receptor A2a [1]. This molecule yielded a Ki at Adenosine receptor A3 of 135 nM.
On to `Cc1ccccc1CNC(=O)[C@H]1S[C@@H](n2cnc3c(NCc4cccc(I)c4)ncnc32)[C@H](O)[C@@H]1O`, for which the inhibition in assay [3] was found to be 18%; at Adenosine receptor A2a [1] it was 31%. At Adenosine receptor A3, this molecule had a Ki of 31 nM.
The matching figures for `CCOc1ccccc1CNC(=O)[C@H]1S[C@@H](n2cnc3c(NCc4cccc(I)c4)ncnc32)[C@H](O)[C@@H]1O`: 12%, 20% and 113 nM.
As to `O=C(NCc1cccc(Cl)c1)[C@H]1S[C@@H](n2cnc3c(NCc4cccc(I)c4)ncnc32)[C@H](O)[C@@H]1O`, the inhibition in assay [3] turned out to be 25%; on Adenosine receptor A2a [1] it was 26%. The molecule also yielded a Ki on Adenosine receptor A3 of 144 nM.
As for `O=C(NC1CC1)[C@H]1S[C@@H](n2cnc3c(NCc4cccc(I)c4)ncnc32)[C@H](O)[C@@H]1O`, the Ki amounted to 15.2 nM on Adenosine receptor A2a [4] and 3.03 nM at Adenosine receptor A3.
With `O=C(NC1CCC1)[C@H]1S[C@@H](n2cnc3c(NCc4cccc(I)c4)ncnc32)[C@H](O)[C@@H]1O`, the Ki at Adenosine receptor A1 [2] came to 23.6 nM; at Adenosine receptor A2a [4] it was 122 nM; at Adenosine receptor A3, 1.17 nM.
